Values quoted from earlier work, collected in the PKSmart pharmacokinetics tables (Seal et al. 2025).

Tests used:
[1] = Lombardo et al. 2013, J Clin Pharmacol 53:178, doi 10.1177/0091270012440282; conditions: for Vd / clearance: in vivo, iv; for fraction unbound: plasma
[2] = Lombardo, Berellini, Obach 2018, Drug Metab Dispos 46:1466, doi 10.1124/dmd.118.082966; conditions: human; for MRT / Vd / clearance / half-life: in vivo, iv; for fraction unbound: plasma

Structure (SMILES) | Vd ([1]; dog) [L/kg] | clearance ([1]; dog) [mL/min/kg] | fraction unbound ([1]; dog) | Vd ([1]; rat) [L/kg] | clearance ([1]; rat) [mL/min/kg] | MRT [2] [h] | Vd [2] [L/kg] | clearance [2] [mL/min/kg] | half-life [2] [min] | fraction unbound [2] | fraction unbound ([1]; rat) | Vd ([1]; monkey) [L/kg] | clearance ([1]; monkey) [mL/min/kg] | fraction unbound ([1]; monkey)
COc1ccc(Cl)cc1[C@]1(F)C(=O)Nc2cc(C(F)(F)F)ccc21 | 4.06 | 3.5 | 0.0067 | 6.3 | 43 | 11 | 10 | 15 | 2220 | 0.0038 | – | – | – | –
CN(c1nc2ccccc2s1)C1CCN(C[C@H](O)COc2ccc(F)c(F)c2)CC1 | – | – | – | – | – | – | – | – | – | 0.003 | 0.008 | – | – | –
CCc1nn(CCCN2CCN(c3cccc(Cl)c3)CC2)c(=O)n1CCOc1ccccc1 | 3.24 | 26 | – | – | – | 1.1 | 0.51 | 7.5 | 72 | – | – | – | – | –
CC1CC(=O)NN=C1c1ccc(NN=C(C#N)C#N)cc1 (stereo not given) | 0.22 | 3.37 | – | – | – | 1.1 | 0.24 | 3.8 | 66 | 0.02 | – | – | – | –
CCOc1ccc(NC(C)=O)cc1 | 0.89 | 15.7 | – | – | – | 1.1 | 1.4 | – | 55.2 | 0.47 | – | – | – | –
CNC(=O)c1cccc2c(Nc3ccc(NS(C)(=O)=O)cc3OC)c3cccc(C)c3nc12 | 1 | 3.7 | 0.0038 | 2 | 66 | 1.9 | 0.3 | 2.6 | 144 | 0.0011 | 0.011 | – | – | –
CCCN(CCC)S(=O)(=O)c1ccc(C(=O)O)cc1 | 0.46 | 0.34 | 0.15 | – | – | 8.7 | 0.13 | 0.25 | 354 | – | – | – | – | –
CON=C(C(=O)NC1C(=O)N2C(C(=O)O)=CCS[C@H]12)c1csc(N)n1 (stereo not given in full) | 0.27 | 3.25 | 0.83 | 0.54 | 19.3 | 1.6 | 0.2 | 2.1 | 90 | 0.72 | 0.7 | 0.29 | 5.93 | 0.662
CON=C(C(=O)NC1C(=O)N2C(C(=O)O)=C(CSc3nc(C)c(CC(=O)O)s3)CS[C@H]12)c1csc(N)n1 (stereo not given in full) | 0.26 | 4.1 | 0.243 | 0.18 | 1.1 | 1.5 | 0.054 | 0.61 | 252 | 0.18 | 0.0097 | 0.15 | 1.2 | 1
NCC1(CC(=O)O)CCCCC1 | 0.16 | 2.3 | – | 1.1 | 9.1 | 7 | 0.71 | 1.7 | 318 | – | 0.02 | 0.65 | 2.3 | 0.02
C[C@@H]1CN(c2c(F)c(N)c3c(=O)c(C(=O)O)cn(C4CC4)c3c2F)C[C@H](C)N1 | – | – | – | 3.5 | 19.6 | 24 | 3.9 | 2.7 | 1200 | – | 0.5 | – | – | –
Cc1cn([C@H]2C[C@H](N=[N+]=[N-])[C@@H](CO)O2)c(=O)[nH]c1=O | 1 | 14 | 0.827 | – | – | 1.2 | 1.8 | – | 78 | 0.8 | – | – | – | –
CCN(CC)CCNC(=O)c1cc(Cl)c(N)cc1OC | 1.1 | 23.1 | – | 3.3 | 48 | 9.4 | 3.2 | 5.7 | 432 | – | 0.426 | – | – | –
CO[C@@]1(NC(O)=c2sc(=C(C(N)=O)C(=O)O)s2)C(=O)N2C(C(=O)O)=C(CSc3nnnn3C)CS[C@@H]21 | 0.25 | 4 | 0.6 | 0.25 | 12.8 | 5.2 | 0.13 | 0.42 | 270 | 0.15 | 0.7 | 0.17 | 1.7 | 0.13
COC(=O)CCc1ccc(OCC(O)CNC(C)C)cc1 (stereo not given) | 3.4 | 1500 | 0.62 | – | – | 0.07 | 1.2 | 290 | 9 | 0.59 | 0.71 | – | – | –
O=P(O)(O)C(O)(Cn1ccnc1)P(=O)(O)O | 0.28 | 4.13 | – | – | – | 4.5 | 0.6 | 2.2 | 660 | 0.78 | – | – | – | –
CC[C@@]1(O)C(=O)OCc2c1cc1n(c2=O)Cc2cc3c(N)cccc3nc2-1 | – | – | – | 5 | 150 | 5.6 | 2.2 | 6.5 | 420 | 0.003 | – | – | – | –
O=C(c1ccc(F)cc1)C1CCN(CCn2c(=O)[nH]c3ccccc3c2=O)CC1 | – | 24.7 | 0.0948 | – | 3.8 | – | – | – | 720 | – | 0.01 | – | – | –
CN(C)CCCN1c2ccccc2CCc2ccc(Cl)cc21 | 3.7 | 23.3 | 0.01 | – | – | 26 | 13 | 8.2 | – | – | – | – | – | –
NC(=O)c1csc([C@@H]2O[C@H](CO)[C@@H](O)[C@H]2O)n1 | 0.99 | – | 0.85 | – | – | 7.6 | 1.1 | – | 354 | 0.47 | – | 2 | – | 1
OCCN1CCN(CCCN2c3ccccc3Sc3ccc(C(F)(F)F)cc32)CC1 | 5.5 | 15.4 | – | – | – | 5 | 2.9 | 9.7 | 738 | 0.04 | – | – | – | –
